Read-outs that look alike come from different tables or passages of the source. Marks after values point to notes of the source that are not given here. Each block holds one compound with its values, some of them ahead of it.
Columns and labels:
P-gp = assay: in vitro; assay type: in vitro ADME; conditions: pig, LLC-PK1
fasted rat = assay: Acute refeeding assay; assay type: in vivo; conditions: for Inhibition of Food Intake at 1 h (%), 5 mg/kg dose: 5 mg/kg PO
[1] = predicted from PK data across species
5-HT2CR = biological target: T1, 5-HT2CR (Homo sapiens, UniProt P28335); assay type: binding
T1 sequence (P28335 33-458): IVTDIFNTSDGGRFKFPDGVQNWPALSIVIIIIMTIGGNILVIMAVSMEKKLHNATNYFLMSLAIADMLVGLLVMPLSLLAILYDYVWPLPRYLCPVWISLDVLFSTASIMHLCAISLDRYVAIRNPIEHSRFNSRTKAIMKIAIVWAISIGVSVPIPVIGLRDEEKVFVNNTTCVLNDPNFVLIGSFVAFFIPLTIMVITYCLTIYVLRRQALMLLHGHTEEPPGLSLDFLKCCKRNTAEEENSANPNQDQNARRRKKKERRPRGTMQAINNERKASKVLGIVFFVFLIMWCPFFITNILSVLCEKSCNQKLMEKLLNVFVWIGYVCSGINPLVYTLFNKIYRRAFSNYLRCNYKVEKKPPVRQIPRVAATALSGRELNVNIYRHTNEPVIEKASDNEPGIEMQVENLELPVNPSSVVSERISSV

CYP2D6 = CYP2D6 (Homo sapiens, UniProt P10635)
Sequence of CYP2D6 (P10635 whole entry): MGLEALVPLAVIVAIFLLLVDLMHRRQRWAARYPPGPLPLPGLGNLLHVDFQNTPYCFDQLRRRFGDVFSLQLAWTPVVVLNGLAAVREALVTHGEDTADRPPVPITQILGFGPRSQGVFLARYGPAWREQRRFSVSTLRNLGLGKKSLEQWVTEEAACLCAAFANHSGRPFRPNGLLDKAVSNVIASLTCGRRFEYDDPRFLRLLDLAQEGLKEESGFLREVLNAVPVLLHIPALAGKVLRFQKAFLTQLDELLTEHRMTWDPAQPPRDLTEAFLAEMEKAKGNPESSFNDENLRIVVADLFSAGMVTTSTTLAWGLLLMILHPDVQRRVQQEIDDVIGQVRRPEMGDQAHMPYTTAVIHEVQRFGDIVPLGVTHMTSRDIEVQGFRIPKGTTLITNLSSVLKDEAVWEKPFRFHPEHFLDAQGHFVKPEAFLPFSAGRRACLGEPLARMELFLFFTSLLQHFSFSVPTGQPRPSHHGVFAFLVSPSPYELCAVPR

CYP2C19 = CYP2C19 (Homo sapiens, UniProt P33261)
Sequence of CYP2C19 (P33261 whole entry): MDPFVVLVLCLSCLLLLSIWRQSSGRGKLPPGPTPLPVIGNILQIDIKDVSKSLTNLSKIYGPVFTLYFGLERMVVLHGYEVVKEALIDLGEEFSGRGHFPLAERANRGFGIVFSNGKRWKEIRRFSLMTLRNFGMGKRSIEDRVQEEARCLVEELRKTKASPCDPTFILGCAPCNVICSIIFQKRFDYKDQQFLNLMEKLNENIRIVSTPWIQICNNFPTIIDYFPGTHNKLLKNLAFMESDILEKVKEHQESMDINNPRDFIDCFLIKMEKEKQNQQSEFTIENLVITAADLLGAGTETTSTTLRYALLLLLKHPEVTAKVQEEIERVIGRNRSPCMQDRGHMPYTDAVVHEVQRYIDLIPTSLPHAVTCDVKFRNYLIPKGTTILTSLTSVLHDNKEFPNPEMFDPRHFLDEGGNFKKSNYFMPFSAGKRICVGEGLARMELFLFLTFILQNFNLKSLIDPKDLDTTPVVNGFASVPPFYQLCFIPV

in vivo = conditions: cynomolgus monkey, iv, 2 mg/kg
major CYP enzymes = assay: CYP time-dependent inhibition
CYP2C9 = CYP2C9 (Homo sapiens, UniProt P11712)
Sequence of CYP2C9 (P11712 whole entry): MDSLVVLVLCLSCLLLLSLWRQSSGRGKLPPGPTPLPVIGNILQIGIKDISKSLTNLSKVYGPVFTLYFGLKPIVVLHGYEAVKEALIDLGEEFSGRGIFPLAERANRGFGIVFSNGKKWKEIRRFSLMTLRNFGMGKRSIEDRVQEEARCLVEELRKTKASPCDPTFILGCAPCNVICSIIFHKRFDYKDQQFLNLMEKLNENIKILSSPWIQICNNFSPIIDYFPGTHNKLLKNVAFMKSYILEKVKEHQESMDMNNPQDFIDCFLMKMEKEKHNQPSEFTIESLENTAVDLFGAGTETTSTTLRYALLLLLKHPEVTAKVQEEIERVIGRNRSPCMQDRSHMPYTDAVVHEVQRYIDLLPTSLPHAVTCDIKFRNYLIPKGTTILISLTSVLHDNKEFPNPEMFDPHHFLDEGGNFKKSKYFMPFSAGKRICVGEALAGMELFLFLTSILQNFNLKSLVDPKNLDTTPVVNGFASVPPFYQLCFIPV

CYP2B6 = biological target: T2, CYP2B6 (Homo sapiens, UniProt P20813); assay: CYP inhibition; assay type: in vitro ADME
T2 sequence (P20813 1-491): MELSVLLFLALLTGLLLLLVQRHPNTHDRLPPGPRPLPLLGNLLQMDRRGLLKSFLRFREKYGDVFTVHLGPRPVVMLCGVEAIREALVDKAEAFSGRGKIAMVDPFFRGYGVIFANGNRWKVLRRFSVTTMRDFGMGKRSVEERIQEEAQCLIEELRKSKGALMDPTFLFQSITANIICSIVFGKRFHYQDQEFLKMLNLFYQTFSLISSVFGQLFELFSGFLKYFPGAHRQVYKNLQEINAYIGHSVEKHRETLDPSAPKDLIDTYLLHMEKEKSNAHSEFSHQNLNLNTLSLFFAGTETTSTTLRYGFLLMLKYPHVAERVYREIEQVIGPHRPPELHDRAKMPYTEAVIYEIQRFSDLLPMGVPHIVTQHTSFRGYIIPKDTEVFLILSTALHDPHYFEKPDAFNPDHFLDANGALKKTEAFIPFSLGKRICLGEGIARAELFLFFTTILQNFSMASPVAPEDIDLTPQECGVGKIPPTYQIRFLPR

[2] = system: Eurofins safety screen panel; conditions: at 10 μM
CYP2C8 = biological target: T3, CYP2C8 (Homo sapiens, UniProt P10632)
T3 sequence (P10632 1-490): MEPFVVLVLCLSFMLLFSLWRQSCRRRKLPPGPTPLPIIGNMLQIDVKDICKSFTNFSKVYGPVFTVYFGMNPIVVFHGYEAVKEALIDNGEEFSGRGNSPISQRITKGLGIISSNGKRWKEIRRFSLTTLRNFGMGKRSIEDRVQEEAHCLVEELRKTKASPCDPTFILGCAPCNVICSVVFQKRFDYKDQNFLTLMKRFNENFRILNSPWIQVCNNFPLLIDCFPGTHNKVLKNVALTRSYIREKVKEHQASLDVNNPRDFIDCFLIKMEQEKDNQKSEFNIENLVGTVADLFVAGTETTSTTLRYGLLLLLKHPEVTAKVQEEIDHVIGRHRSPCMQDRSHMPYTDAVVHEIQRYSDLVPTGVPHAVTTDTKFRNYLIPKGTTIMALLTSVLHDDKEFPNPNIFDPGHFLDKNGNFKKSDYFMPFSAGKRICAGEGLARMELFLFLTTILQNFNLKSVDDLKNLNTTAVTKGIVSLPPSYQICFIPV

CYP3A4 = CYP3A4 (Homo sapiens, UniProt P08684)
Sequence of CYP3A4 (P08684 whole entry): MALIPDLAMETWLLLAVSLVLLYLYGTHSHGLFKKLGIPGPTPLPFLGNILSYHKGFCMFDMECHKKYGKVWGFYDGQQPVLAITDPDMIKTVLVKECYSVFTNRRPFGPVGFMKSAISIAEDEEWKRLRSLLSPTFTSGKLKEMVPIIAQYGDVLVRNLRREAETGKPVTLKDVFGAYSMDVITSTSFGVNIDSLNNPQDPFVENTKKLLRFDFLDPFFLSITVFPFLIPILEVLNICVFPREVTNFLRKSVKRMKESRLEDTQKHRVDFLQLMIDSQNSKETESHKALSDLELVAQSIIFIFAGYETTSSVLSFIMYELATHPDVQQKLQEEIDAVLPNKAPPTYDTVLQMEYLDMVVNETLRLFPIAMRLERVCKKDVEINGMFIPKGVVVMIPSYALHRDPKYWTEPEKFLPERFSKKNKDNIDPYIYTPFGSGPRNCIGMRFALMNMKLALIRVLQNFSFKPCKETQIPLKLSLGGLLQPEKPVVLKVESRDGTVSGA

CYP1A2 = biological target: T4, CYP1A2 (Homo sapiens, UniProt P05177)
T4 sequence (P05177 1-516): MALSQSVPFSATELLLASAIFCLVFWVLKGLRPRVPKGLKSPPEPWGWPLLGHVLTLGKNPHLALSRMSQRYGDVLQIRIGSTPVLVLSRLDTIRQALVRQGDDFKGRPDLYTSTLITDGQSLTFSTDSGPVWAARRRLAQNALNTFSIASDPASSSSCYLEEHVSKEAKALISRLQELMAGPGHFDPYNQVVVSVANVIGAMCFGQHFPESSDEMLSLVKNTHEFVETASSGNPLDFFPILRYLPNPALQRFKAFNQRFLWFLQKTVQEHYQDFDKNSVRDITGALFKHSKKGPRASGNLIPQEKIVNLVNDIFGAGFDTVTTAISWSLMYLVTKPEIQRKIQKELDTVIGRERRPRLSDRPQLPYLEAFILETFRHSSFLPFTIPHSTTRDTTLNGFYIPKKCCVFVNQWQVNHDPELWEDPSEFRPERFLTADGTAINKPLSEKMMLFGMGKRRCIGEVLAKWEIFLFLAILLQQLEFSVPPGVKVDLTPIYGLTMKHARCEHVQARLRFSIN

[3] = Dynamic moisture sorption test; assay type: physicochemical; conditions: 90% relative humidity, 25 °C

Structure (SMILES): CNC(=O)c1ccc2c3c1C(CC(F)(F)F)CN3CCNC2 (single isomer, unassigned; (+)) [(+)-19a]
- Papp A→B (P-gp): 14.8 ×10⁻⁶ cm/s

Structure (SMILES): CCCNC(=O)c1ccc2c3c1C(CC(F)(F)F)CN3CCNC2 (single isomer, unassigned; (+)) [(+)-19c]
- Inhibition of Food Intake at 1 h (%) with 10 mg/kg po (fasted rat; 10 mg/kg PO): 53 ^c %

Structure (SMILES): CCC1CN2CCNCc3ccc(C(=O)NC)c1c32 (single isomer, unassigned; (+)) [(+)-19i]
- Papp A→B (P-gp): 7.73 ×10⁻⁶ cm/s

Structure (SMILES): CCC1CN2CCNCc3ccc(C(=O)NCC(F)F)c1c32 (single isomer, unassigned; (+)) [(+)-19k, (+)-N-(2,2-Difluoroethyl)-7-ethyl-1,2,3,4,6,7-hexahydro-[1,4]diazepino[6,7,1-hi]indole-8-carboxamide]
- Papp A→B (P-gp): 12.8 ×10⁻⁶ cm/s
- efflux ratio (P-gp): 2.16
- Inhibition of Food Intake at 1 h (%), 5 mg/kg dose (fasted rat): 27 ^d %

Structure (SMILES): C[C@H]1CN2CCNCc3ccc(C(=O)NCC(F)F)c1c32 [(+)-19m, (+)-N-(2,2-Difluoroethyl)-7-methyl-1,2,3,4,6,7-hexahydro-[1,4]diazepino[6,7,1-hi]indole-8-carboxamide]
- IC50 (CYP2D6): > 30 µM
- Papp A→B (P-gp): 8.9 ×10⁻⁶ cm/s
- IC50 (CYP2C19): > 30 µM
- Inhibition of Food Intake at 1 h (%), 5 mg/kg dose (fasted rat): 81 ^d %
- CL renal (in vivo): 1.8 mL/h/kg
- CYP time-dependent inhibition (major CYP enzymes): no time-dependent inhibition
- Rat brain protein-binding: 53%
- IC50 (CYP2C9): > 30 µM
- Predicted half-life in human by allometric scaling [1]: approximately 7 h
- IC50 (CYP2B6): > 30 µM
- Binding against >140 target Eurofins safety screen panel [2]: < 25%
- IC50 (CYP2C8): > 30 µM
- IC50 (CYP3A4): > 30 µM
- IC50 (CYP1A2): > 30 µM

Structure (SMILES): C[C@H]1CN2CCNCc3ccc(C(=O)NCC(F)F)c1c32.Cl [(+)-19m. HCl]
- Weight gain in dynamic moisture sorption test [3]: < 0.1%

Now from value to compound, other results behind:

- Predicted half-life in human by allometric scaling [1]: 3 h
Structure (SMILES): CNC(=O)c1ccc2c3c1CCN3CCNC2 [7b, N-Methyl-1,2,3,4,6,7-hexahydro-[1,4]diazepino[6,7,1-hi]indole-8-carboxamide]
- Hypophagic effect after preadministration of 5-HT2CR antagonist SB242084 (fasted rat; 10 mg/kg po, 1 h, SB242084 1 mg/kg PO): blocked

- Selectivity for 5-HT2CR over 5-HT2AR and 5-HT2BR in binding assays (5-HT2CR): > 500 fold
Structure (SMILES): CSCCNC(=O)c1ccc2c3c1CCN3CCNC2 [7j, N-(2-(Methylthio)ethyl)-1,2,3,4,6,7-hexahydro-[1,4]diazepino[6,7,1-hi]indole-8-carboxamide]

- Selectivity for 5-HT2CR over 5-HT2AR and 5-HT2BR in binding assays (5-HT2CR; 125I-DOI binding assay): ~100 fold
Structure (SMILES): O=C(NCCOc1ccccc1)c1ccc2c3c1CCN3CCNC2 [7p, N-(2-Phenoxyethyl)-1,2,3,4,6,7-hexahydro-[1,4]diazepino[6,7,1-hi]indole-8-carboxamide]

— article PMC12169610 (Journal of Medicinal Chemistry, 2025)
